Assay results as given in the NIST ThermoML archive (doi:10.1016/j.fluid.2013.08.029).
± gives the expanded uncertainty stated by the source.

Conditions: 101.33 kPa, Liquid; for speed of sound: Sing-around technique in a fixed-path interferometer; for mass density: Vibrating tube method

Structure (SMILES) | speed of sound (288.15 K) | speed of sound (293.15 K) | mass density (293.15 K) | speed of sound (298.15 K) | speed of sound (303.15 K) | mass density (303.15 K) | speed of sound (308.15 K) | speed of sound (313.15 K) | mass density (313.15 K) | speed of sound (318.15 K) | mass density (288.15 K) | mass density (298.15 K) | mass density (308.15 K) | mass density (318.15 K)
OCCO [1,2-ethanediol] | 1677.5 ± 2.2 m/s | 1665.6 ± 2.2 m/s | 1113.35 ± 0.16 kg/m3 | 1653.9 ± 2.2 m/s | 1642.2 ± 2.2 m/s | 1106.33 ± 0.16 kg/m3 | 1630.6 ± 2.2 m/s | 1618.9 ± 2.2 m/s | 1099.26 ± 0.16 kg/m3 | 1607.3 ± 2.2 m/s | – | – | – | –
CCCCCn1cc[n+](C)c1.F[B-](F)(F)F [1-methyl-3-pentyl-imidazolium tetrafluoroborate] | 1565.2 ± 2.9 m/s | 1552.5 ± 2.9 m/s | 1180.34 ± 1.2 kg/m3 | 1540.2 ± 2.9 m/s | 1528.2 ± 2.9 m/s | 1173.35 ± 1.2 kg/m3 | 1516.3 ± 2.9 m/s | 1504.6 ± 2.9 m/s | 1166.36 ± 1.2 kg/m3 | 1493.1 ± 2.9 m/s | 1183.92 ± 1.2 kg/m3 | 1176.85 ± 1.2 kg/m3 | 1169.85 ± 1.2 kg/m3 | 1162.85 ± 1.2 kg/m3
CCCCn1cc[n+](C)c1C.F[B-](F)(F)F [1-butyl-2,3-dimethylimidazolium tetrafluoroborate] | 1668.6 ± 2.2 m/s | 1654.9 ± 2.1 m/s | 1196.72 ± 0.15 kg/m3 | 1641.4 ± 2.1 m/s | 1628.7 ± 2.1 m/s | 1189.92 ± 0.15 kg/m3 | 1616.9 ± 2.1 m/s | 1605.1 ± 2.1 m/s | 1183.17 ± 0.15 kg/m3 | 1593.9 ± 2.1 m/s | 1199.9 ± 0.15 kg/m3 | 1193.34 ± 0.15 kg/m3 | 1186.52 ± 0.15 kg/m3 | 1179.54 ± 0.15 kg/m3
CCCCCn1cc[n+](C)c1.[Br-] [1-pentyl-3-methylimidazolium bromide] | 1678.6 ± 3 m/s | 1644.2 ± 3 m/s | 1260.52 ± 1.4 kg/m3 | 1617.5 ± 3 m/s | 1596.4 ± 2.9 m/s | 1253.05 ± 1.4 kg/m3 | 1578.9 ± 2.9 m/s | 1563.7 ± 2.9 m/s | 1246.17 ± 1.4 kg/m3 | 1550.2 ± 2.9 m/s | 1264.08 ± 1.4 kg/m3 | 1256.87 ± 1.4 kg/m3 | 1249.57 ± 1.4 kg/m3 | 1242.76 ± 1.4 kg/m3
